# Values of other authors, collected in US10245273B2, “Oral pharmaceutical products and methods of use combining testosterone esters with hypolipidemic agents” (Clarus Therapeutics, Inc., priority 2013, dated 2019).
structure (smiles),measurement,setting,value
Cc1ccc(C)c(OCCCC(C)(C)C(=O)O)c1 [gemfibrozil],Subjects with a primary event,600 mg twice daily for 5 years (placebo 21.7%),17.3%
same,Reduction in CHD events / relative risk reduction of primary outcome (nonfatal myocardial infarction or death of cardiac origin),"600 mg twice daily, median follow-up 5.1 years, vs placebo",22%
same,Increase in numbers of small HDL particles,in vivo,21%
same,Increase in total HDL particles,in vivo,10%
same,"Relative risk reduction for combined cardiac events (nonfatal MI, death from coronary causes or stroke)",vs placebo,24%
